Results published in patent US11578079B2, “SUMO inhibitor compounds and uses thereof” (CITY OF HOPE, priority 2018, dated 2023).

Columns and labels:
SUMO = target: T1, SUMO (Homo sapiens, UniProt Q9UBT2); assay: SUMO activity (Table I, biological activities); format: biochemical; parameters: key: + (less active); ++ (active); +++ (most active)
T1 sequence (Q9UBT2 1-640): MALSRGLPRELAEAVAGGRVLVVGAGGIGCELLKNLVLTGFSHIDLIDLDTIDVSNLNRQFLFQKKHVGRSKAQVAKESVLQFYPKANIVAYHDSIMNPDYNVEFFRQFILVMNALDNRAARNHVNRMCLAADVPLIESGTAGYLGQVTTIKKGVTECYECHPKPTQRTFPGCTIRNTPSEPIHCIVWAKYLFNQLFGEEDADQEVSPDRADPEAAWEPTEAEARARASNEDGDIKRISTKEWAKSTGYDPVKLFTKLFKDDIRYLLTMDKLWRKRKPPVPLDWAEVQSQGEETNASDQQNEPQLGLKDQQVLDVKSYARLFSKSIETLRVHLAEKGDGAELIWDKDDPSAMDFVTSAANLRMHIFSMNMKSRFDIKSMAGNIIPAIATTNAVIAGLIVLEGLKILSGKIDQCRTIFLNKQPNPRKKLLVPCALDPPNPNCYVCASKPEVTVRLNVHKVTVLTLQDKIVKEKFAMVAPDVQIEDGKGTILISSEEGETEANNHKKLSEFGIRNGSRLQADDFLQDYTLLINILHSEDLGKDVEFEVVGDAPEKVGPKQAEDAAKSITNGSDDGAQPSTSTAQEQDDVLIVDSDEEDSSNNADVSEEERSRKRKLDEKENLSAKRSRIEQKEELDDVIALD
T1 sequence (Q9UBE0 1-346 partner): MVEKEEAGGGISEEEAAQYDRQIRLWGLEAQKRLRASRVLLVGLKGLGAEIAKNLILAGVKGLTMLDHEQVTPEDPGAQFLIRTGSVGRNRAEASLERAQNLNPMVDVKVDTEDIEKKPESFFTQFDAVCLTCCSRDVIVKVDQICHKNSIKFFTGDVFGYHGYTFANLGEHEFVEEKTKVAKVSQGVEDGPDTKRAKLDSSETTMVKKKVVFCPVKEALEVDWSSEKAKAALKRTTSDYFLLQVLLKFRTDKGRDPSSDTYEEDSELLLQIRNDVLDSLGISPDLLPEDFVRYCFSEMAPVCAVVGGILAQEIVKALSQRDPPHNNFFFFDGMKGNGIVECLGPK

c-Myc = c-Myc activity (Table I, biological activities); parameters: key: + (less active); ++ (active); +++ (most active)

SMILES	SUMO (SUMO)	c-Myc (c-Myc)
CCN(CC)CCNC(=O)C1=C(C(=O)OC)C2(C(Cc3ccccc3)Nc3cc(F)cc(Cl)c3)C=CC1O2 (stereo not drawn) [Compound 376]	+++	++
COC(=O)C1=C(C(=O)NC2CCN(C(=O)C3CC3)CC2)C2C=CC1(C(Cc1ccccc1)Nc1ccccc1)O2 (stereo not drawn) [Compound 377]	++	+
COC(=O)C1=C(C(=O)NC2CCN(C(=O)C3CCN(C)CC3)CC2)C2C=CC1(C(Cc1ccccc1)Nc1ccccc1)O2 (stereo not drawn) [Compound 378]	++	+
COC(=O)C1=C(C(=O)NC2CCN(C(=O)c3ccc(C#N)cc3)CC2)C2C=CC1(C(Cc1ccccc1)Nc1ccccc1)O2 (stereo not drawn) [Compound 379]	++	+
COC(=O)C1=C(C(=O)NC2CCN(C(=O)c3ccc(Cl)cc3)CC2)C2C=CC1(C(Cc1ccccc1)Nc1ccccc1)O2 (stereo not drawn) [Compound 380]	++	+
COC(=O)C1=C(C(=O)NC2CCN(C(=O)c3c(C)cccc3C)CC2)C2C=CC1(C(Cc1ccccc1)Nc1ccccc1)O2 (stereo not drawn) [Compound 381]	++	+
COC(=O)C1=C(C(=O)NC2CCN(C(=O)NCC3CCCO3)CC2)C2C=CC1(C(Cc1ccccc1)Nc1ccccc1)O2 (stereo not drawn) [Compound 382]	++	+
COC(=O)C1=C(C(=O)NC2CCN(C(=O)c3ccsc3)CC2)C2C=CC1(C(Cc1ccccc1)Nc1ccccc1)O2 (stereo not drawn) [Compound 383]	++	+
COC(=O)C1=C(C(=O)NC2CCN(C(=O)NCc3cccnc3)CC2)C2C=CC1(C(Cc1ccccc1)Nc1ccccc1)O2 (stereo not drawn) [Compound 384]	++	+
COC(=O)C1=C(C(=O)NC2CCN(C(=O)CN(C)C)CC2)C2C=CC1(C(Cc1ccccc1)Nc1ccccc1)O2 (stereo not drawn) [Compound 385]	++	+
COC(=O)C1=C(C(=O)NC2CCN(C(=O)c3cccc(F)c3)CC2)C2C=CC1(C(Cc1ccccc1)Nc1ccccc1)O2 (stereo not drawn) [Compound 386]	++	+
COC(=O)C1=C(C(=O)NC2CCN(C(=O)Cc3ccccc3)CC2)C2C=CC1(C(Cc1ccccc1)Nc1ccccc1)O2 (stereo not drawn) [Compound 387]	++	+
COC(=O)C1=C(C(=O)N(C)CCN(C)C)C2C=CC1(C(Cc1ccccc1)Nc1ccccc1)O2 (stereo not drawn) [Compound 388]	+	+
COC(=O)C1=C(C(=O)NCCCN(C)C)C2C=CC1(C(Cc1ccccc1)Nc1ccccc1)O2 (stereo not drawn) [Compound 389]	++	+
COC(=O)C1=C(C(=O)NC2CCN(C(=O)c3cncnc3)CC2)C2C=CC1(C(Cc1ccccc1)Nc1ccccc1)O2 (stereo not drawn) [Compound 390]	++	+
COC(=O)C1=C(C(=O)NC2CCN(C(=O)c3ccccn3)CC2)C2C=CC1(C(Cc1ccccc1)Nc1ccccc1)O2 (stereo not drawn) [Compound 391]	++	+
COC(=O)C1=C(C(=O)NC2CCN(C(=O)c3ccc(Cl)s3)CC2)C2C=CC1(C(Cc1ccccc1)Nc1ccccc1)O2 (stereo not drawn) [Compound 392]	++	+
COC(=O)C1=C(C(=O)NCCNS(=O)(=O)c2ccccc2)C2C=CC1(C(Cc1ccccc1)Nc1ccccc1)O2 (stereo not drawn) [Compound 394]	++	+
COC(=O)C1=C(C(=O)NCCNC(=O)Nc2ccccc2)C2C=CC1(C(Cc1ccccc1)Nc1ccccc1)O2 (stereo not drawn) [Compound 395]	++	+
COC(=O)C1=C(C(=O)NCc2ccccn2)C2C=CC1(C(Cc1ccccc1)Nc1ccccc1)O2 (stereo not drawn) [Compound 396]	+	++
COC(=O)C1=C(C(=O)NCCN(C)C)C2C=CC1(C(Cc1ccccc1)Nc1cc(F)cc(F)c1)O2 (stereo not drawn) [Compound 399]	++	+

Second part, led by results:

SUMO (SUMO)	SMILES	c-Myc (c-Myc)
++	CCN(CC)CCNC(=O)C1=C(C(=O)OC)C2(C(Cc3ccccc3)Nc3cc(F)cc(F)c3)C=CC1O2 (stereo not drawn) [Compound 400]	++
++	COC(=O)C1=C(C(=O)NCCN(C)C)C2(C(Cc3ccccc3)Nc3cc(F)cc(F)c3)C=CC1O2 (stereo not drawn) [Compound 401]	++
++	CCN(CC)CCNC(=O)C1=C(C(=O)OC)C2C=CC1(C(Cc1ccccc1)Nc1cc(F)cc(F)c1)O2 (stereo not drawn) [Compound 402]	+
++	COCCNC(=O)C1=C(C(=O)OC)C2(C(Cc3ccccc3)Nc3ccccc3)C=CC1O2 (stereo not drawn) [Compound 403]	+
++	COC(=O)C1=C(C(=O)NC2CN(C(=O)OC(C)(C)C)C2)C2C=CC1(C(Cc1ccccc1)Nc1ccccc1)O2 (stereo not drawn) [Compound 404]	+
++	COC(=O)C1=C(C(=O)NCC2CCCO2)C2C=CC1(C(Cc1ccccc1)Nc1ccccc1)O2 (stereo not drawn) [Compound 405]	+
+++	COC(=O)C1=C(C(=O)NCCN2CCCC2)C2C=CC1(C(Cc1ccccc1)Nc1ccccc1)O2 (stereo not drawn) [Compound 406]	++
++	COC(=O)C1=C(C(=O)NCCN(C)C)C2C=CC1(C(Cc1ccccc1)Nc1ccc(F)cc1F)O2 (stereo not drawn) [Compound 409]	++
++	CCN(CC)CCNC(=O)C1=C(C(=O)OC)C2(C(Cc3ccccc3)Nc3ccc(F)cc3F)C=CC1O2 (stereo not drawn) [Compound 410]	+
++	CCOC(=O)C1=C(C(=O)NCCN(C)C)C2C=CC1(C(Cc1ccccc1)Nc1ccc(F)cc1F)O2 (stereo not drawn) [Compound 411]	+
++	CCN(CC)CCNC(=O)C1=C(C(=O)OC)C2(C(Cc3ccccc3)Nc3ccc(F)cc3F)C=CC1O2 (stereo not drawn) [Compound 412]	+
++	C=CCC(Nc1ccccc1)C12C=CC(O1)C(C(=O)NCCN(C)C)=C2C(=O)OC (stereo not drawn) [Compound 415]	+
++	C=CCC(Nc1ccccc1)C12C=CC(O1)C(C(=O)NCCN(CC)CC)=C2C(=O)OC (stereo not drawn) [Compound 416]	+
++	COC(=O)C1=C(C(=O)OC)C2(C(Cc3ccccc3)Nc3cccc(F)c3)C=CC1O2 (stereo not drawn) [Compound 417]	+
++	COC(=O)C1=C(C(=O)NCC2CCCN2C)C2C=CC1(C(Cc1ccccc1)Nc1ccccc1)O2 (stereo not drawn) [Compound 418]	++
++	COC(=O)C1=C(C(=O)NCCN(C)C(=O)OC(C)(C)C)C2C=CC1(C(Cc1ccccc1)Nc1ccccc1)O2 (stereo not drawn) [Compound 419]	+
++	COC(=O)C1=C(C(=O)NCCN(C)C)C2C=CC1(C(Cc1ccccc1)Nc1cccc(F)c1)O2 (stereo not drawn) [Compound 420]	++
++	CCN(CC)CCNC(=O)C1=C(C(=O)OC)C2(C(Cc3ccccc3)Nc3cccc(F)c3)C=CC1O2 (stereo not drawn) [Compound 421]	++
++	COC(=O)C1=C(C(=O)OC)C2(C(Cc3ccc(C(F)(F)F)cc3)Nc3ccccc3)C=CC1O2 (stereo not drawn) [Compound 422]	+
++	COC(=O)C1=C(C(=O)NCCN(C)C)C2C=CC1(C(Cc1ccc(C(F)(F)F)cc1)Nc1ccccc1)O2 (stereo not drawn) [Compound 423]	++
++	CCN(CC)CCNC(=O)C1=C(C(=O)OC)C2(C(Cc3ccc(C(F)(F)F)cc3)Nc3ccccc3)C=CC1O2 (stereo not drawn) [Compound 424]	++
